Results as given in patent US20230023559A1, “ARYLMETHYLENE HETEROCYCLIC COMPOUNDS AS KV1.3 POTASSIUM SHAKER CHANNEL BLOCKERS” (D. E. Shaw Research, LLC, priority 2019, published 2023).

How the values were obtained:
[1] = biological target: hERG channel (Homo sapiens, UniProt Q12809); test: hERG electrophysiology, automated whole-cell patch clamp (Patchliner)
Procedure: CHO-K1 cells stably expressing hERG were grown in Ham's F-12 Medium with Glutamine containing 10% heat-inactivated FBS, 1% Penicillin/Streptomycin, Hygromycin (100 μg/ml) and G418 (100 μg/ml). Cells were grown in culture flasks at 37° C. in a 5% CO2-humidified incubator.
The cells were bathed in an extracellular solution containing 140 mM NaCl, 4 mM KCl, 2 mM CaCl2), 1 mM MgCl2, 5 mM Glucose, 10 mM HEPES; pH adjusted to 7.4 with NaOH; 295-305 mOsm. The internal solution contained 50 mM KCl, 10 mM NaCl, 60 mM KF, 20 mM EGTA, 10 mM HEPES; pH adjusted to 7.2 with KOH; 285 mOsm. All compounds were dissolved in DMSO at 30 mM. Compound stock solutions were freshly diluted with external solution to concentrations of 30 nM, 100 nM, 300 nM, 1 μM, 3 μM, 10 μM, 30 μM and 100 μM. The highest content of DMSO (0.3%) was present in 100 μM.
The voltage protocol (see Table B) was designed to simulate voltage changes during a cardiac action potential with a 300 ms depolarization to +20 mV (analogous to the plateau phase of the cardiac action potential), a repolarization for 300 ms to −50 mV (inducing a tail current) and a final step to the holding potential of −80 mV. The pulse frequency was 0.3 Hz. Control (compound-free) and compound pulse trains for each compound concentration applied contained 70 pulses.
Whole cell current recordings and compound application were enabled by means of an automated patch clamp platform Patchliner (Nanion). EPC 10 patch clamp amplifier (HEKA) along with Patchmaster software (HEKA Elektronik Dr. Schulze GmbH) was used for data acquisition. Data were sampled at 10 kHz without filtering. Increasing compound concentrations were applied consecutively to the same cell without washouts in between.
AUC and PEAK values were obtained with Patchmaster (HEKA Elektronik Dr. Schulze GmbH). To determine IC50 the last single pulse in the pulse train corresponding to a given compound concentration was used. Obtained AUC and PEAK values in the presence of compound were normalized to control values in the absence of compound. Using Origin (OridinLab), IC50 was derived from data fit to Hill equation: Icompound/Icontrol=(100−A)/(1+([compound]/IC50)nH)+A, where IC50 is the concentration at which current inhibition is half-maximal, [compound] is the applied compound concentration, A is the fraction of current that is not blocked and nH is the Hill coefficient.

[2] = biological target: T1, Kv1.3 potassium channel (Homo sapiens, UniProt P22001); test: Kv1.3 potassium channel blocker activity, automated whole-cell patch clamp (Patchliner); format: cell-based; settings: CHO-K1 cells stably expressing Kv1.3; whole cell current inhibition; read-out: Kv1.3_IC50
T1 construct: expressed in transfected cells
Outline: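 CHO-K1 cells stably expressing Kv1.3, automated whole-cell patch clamp. Currents evoked by 100 ms steps from −90 mV holding to +40 mV at 0.1 Hz, sampled at 10 kHz unfiltered, P/4 leak subtraction; peak current inhibition measured, compound incubation ≤10 s between pulse trains.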

Chain of hERG channel (Q12809 whole entry): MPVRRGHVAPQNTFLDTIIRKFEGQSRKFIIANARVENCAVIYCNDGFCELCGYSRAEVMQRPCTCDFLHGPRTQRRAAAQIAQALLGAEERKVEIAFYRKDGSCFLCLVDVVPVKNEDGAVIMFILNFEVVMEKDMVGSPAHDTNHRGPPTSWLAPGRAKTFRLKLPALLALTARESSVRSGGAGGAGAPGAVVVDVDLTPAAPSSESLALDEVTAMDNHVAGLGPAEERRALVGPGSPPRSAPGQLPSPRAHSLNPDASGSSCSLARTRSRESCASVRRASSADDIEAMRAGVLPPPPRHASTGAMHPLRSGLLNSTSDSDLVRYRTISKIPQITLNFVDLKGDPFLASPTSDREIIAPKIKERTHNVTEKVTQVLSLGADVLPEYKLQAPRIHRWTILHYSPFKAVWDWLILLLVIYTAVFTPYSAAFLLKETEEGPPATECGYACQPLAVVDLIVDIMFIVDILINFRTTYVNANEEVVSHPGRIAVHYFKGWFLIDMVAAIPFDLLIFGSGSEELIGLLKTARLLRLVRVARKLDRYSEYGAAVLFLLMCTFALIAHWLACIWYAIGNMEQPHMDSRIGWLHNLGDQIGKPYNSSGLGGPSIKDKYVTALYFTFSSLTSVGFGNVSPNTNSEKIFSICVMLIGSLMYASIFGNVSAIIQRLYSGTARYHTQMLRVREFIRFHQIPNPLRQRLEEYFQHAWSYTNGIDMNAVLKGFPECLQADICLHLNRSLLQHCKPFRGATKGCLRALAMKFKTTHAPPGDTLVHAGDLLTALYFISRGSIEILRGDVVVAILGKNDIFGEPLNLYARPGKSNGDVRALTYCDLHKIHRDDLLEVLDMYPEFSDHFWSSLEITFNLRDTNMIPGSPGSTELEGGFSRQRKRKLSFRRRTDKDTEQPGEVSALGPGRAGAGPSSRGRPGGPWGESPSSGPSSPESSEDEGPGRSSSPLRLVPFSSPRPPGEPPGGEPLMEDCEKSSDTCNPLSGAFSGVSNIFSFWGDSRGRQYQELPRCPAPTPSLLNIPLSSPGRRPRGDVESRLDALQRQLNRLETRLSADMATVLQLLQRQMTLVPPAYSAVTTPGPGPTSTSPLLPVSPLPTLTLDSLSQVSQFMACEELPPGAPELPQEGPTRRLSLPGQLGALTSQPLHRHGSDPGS
T1 sequence (P22001 whole entry): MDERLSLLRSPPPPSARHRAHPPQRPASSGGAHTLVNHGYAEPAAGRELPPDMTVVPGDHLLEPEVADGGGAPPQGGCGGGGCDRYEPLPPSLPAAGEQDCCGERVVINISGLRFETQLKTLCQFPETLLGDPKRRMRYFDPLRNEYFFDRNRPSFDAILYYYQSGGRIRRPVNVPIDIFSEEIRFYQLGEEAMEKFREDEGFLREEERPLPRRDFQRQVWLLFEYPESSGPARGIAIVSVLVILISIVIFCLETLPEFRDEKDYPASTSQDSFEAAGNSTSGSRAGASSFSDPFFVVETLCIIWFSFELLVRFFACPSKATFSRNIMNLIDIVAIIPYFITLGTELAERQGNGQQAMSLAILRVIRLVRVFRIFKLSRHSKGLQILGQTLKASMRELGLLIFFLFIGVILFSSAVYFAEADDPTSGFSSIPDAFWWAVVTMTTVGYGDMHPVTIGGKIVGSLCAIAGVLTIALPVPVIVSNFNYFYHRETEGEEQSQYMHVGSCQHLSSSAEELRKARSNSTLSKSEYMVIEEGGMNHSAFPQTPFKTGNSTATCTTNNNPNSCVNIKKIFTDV

IC50 [2] [µM] | Structure (SMILES) | IC50 [1] [µM]
< 0.5 | C[C@H](CO)C(=O)N1CCC([C@@H](N)c2cc(Cl)c(Cl)cc2O)CC1 [Compound 304, (2R)-1-[4-[(R)-amino(4,5-dichloro-2-hydroxyphenyl)methyl]piperidin-1-yl]-3-hydroxy-2-methylpropan-1-one] | > 30
< 10 | C[C@](O)(CO)C(=O)N1CCC([C@@H](N)c2cc(Cl)c(Cl)cc2O)CC1 (single isomer, unassigned; isomer 2) [Compound 218] | > 30
< 0.5 | C[C@@]1(C(=O)N2CCC([C@@H](N)c3cc(Cl)c(Cl)cc3O)CC2)CCCN1 [Compound 98, (4-((R)-amino(4,5-dichloro-2-hydroxyphenyl)methyl)piperidin-1-yl)((S)-2-methylpyrrolidin-2-yl)methanone] | > 30
< 0.5 | N[C@@H](c1cc(Cl)c(Cl)cc1O)C1CCN(C(=O)N2CC(O)C2)CC1 [Compound 148, 1-[4-[(R)-amino(4,5-dichloro-2-hydroxyphenyl)methyl]piperidine-1-carbonyl]azetidin-3-ol Trifluoroacetic Acid] | > 30
< 0.5 | CC(=O)N1CCC([C@@H](N)c2cc(Cl)c(Cl)cc2O)CC1 (single isomer, unassigned) [Compound 20] | < 30
< 10 | C[C@@H](O)C(=O)N1CCC([C@@H](N)c2cc(Cl)c(Cl)cc2O)CC1 [Compound 105, (R)-1-(4-((R)-amino(4,5-dichloro-2-hydroxyphenyl)methyl)piperidin-1-yl)-2-hydroxypropan-1-one] | > 30
< 0.5 | N[C@@H](c1cc(Cl)c(Cl)cc1O)C1CCN(C(=O)C(O)CO)CC1 (stereo partly drawn) [Compound 117, 1-(4-((R)-amino(4,5-dichloro-2-hydroxyphenyl)methyl)piperidin-1-yl)-2,3-dihydroxypropan-1-one] | > 30
< 0.5 | C[C@H](N)C(=O)N1CCC(C(N)c2cc(Cl)c(Cl)cc2O)CC1 (stereo partly drawn) [Compound 50, (2S)-2-amino-1-(4-(amino(4,5-dichloro-2-hydroxyphenyl)methyl)piperidin-1-yl)propan-1-one trifluoroacetic acid] | > 30
< 10 | CC(C)C(N)C(=O)N1CCC([C@@H](N)c2cc(Cl)c(Cl)cc2O)CC1 (stereo partly drawn) [Compound 156, 2-amino-1-[4-[(R)-amino(4,5-dichloro-2-hydroxyphenyl)methyl]piperidin-1-yl]-3-methylbutan-1-one trifluoroacetic acid] | > 30
< 0.5 | CC1CN(C(=O)[C@H](O)CO)CCC1[C@@H](N)c1cc(Cl)c(Cl)cc1O (single isomer, unassigned; isomer 1) [Compound 331] | > 30
< 0.5 | N[C@@H](c1cc(Cl)c(Cl)cc1O)C1CCN(C(=O)c2cnoc2)CC1 [Compound 205, 2-[(R)-amino[1-(1,2-oxazole-4-carbonyl)piperidin-4-yl]methyl]-4,5-dichlorophenol] | > 30

The next lines start with the compound.

Structure (SMILES) | IC50 [2] [µM] | IC50 [1] [µM]
Cc1cc(O)c([C@H](N)C2CCN(C(=O)[C@@H]3OCC[C@@H]3O)CC2)cc1Cl [Compound 335, (2R,3S)-2-[4-[(R)-amino(5-chloro-2-hydroxy-4-methylphenyl)methyl]piperidine-1-carbonyl]oxolan-3-ol trifluoroacetic acid] | < 0.5 | > 30
NC(c1cc(Cl)c(Cl)cc1O)C1CNC1 (stereo not drawn) [Compound 52, 2-[amino(azetidin-3-yl)methyl]-4,5-dichlorophenol Trifluoroacetic Acid] | < 10 | > 30
N[C@@H](c1cc(Cl)c(Cl)cc1O)C1CCN(c2ccn[nH]2)CC1 [Compound 154, 2-[(R)-amino[1-(1H-pyrazol-3-yl)piperidin-4-yl]methyl]-4,5-dichlorophenol Trifluoroacetic Acid] | < 10 | > 30
Cn1cc(C(=O)N2CCC([C@@H](N)c3cc(Cl)c(Cl)cc3O)CC2)ncc1=O [Compound 298, 5-[4-[(R)-amino(4,5-dichloro-2-hydroxyphenyl)methyl]piperidine-1-carbonyl]-1-methylpyrazin-2-one Trifluoroacetic Acid] | < 0.5 | < 30
CNC(c1cc(Cl)c(Cl)cc1O)C1CCNCC1 (stereo not drawn) [Compound 31, 4,5-dichloro-2-[(methylamino)(piperidin-4-yl)methyl]phenol Trifluoroacetic Acid] | < 10 | > 30
N[C@@H](c1cc(Cl)c(Cl)cc1O)C1CCN(C(=O)[C@H]2CNCCO2)CC1 [Compound 97, (4-((R)-amino(4,5-dichloro-2-hydroxyphenyl)methyl)piperidin-1-yl)((R)-morpholin-2-yl)methanone trifluoroacetic acid] | < 0.5 | > 30
N[C@@H](c1cc(Cl)c(Cl)cc1O)[C@@H]1CCC(=O)NC1 (single isomer, unassigned; diastereoisomer 2) [Compound 39, 5-(amino(4,5-dichloro-2-hydroxyphenyl)methyl)piperidin-2-one Diastereoisomer 2] | < 10 | > 30
Nc1nnc(C(=O)N2CCC([C@@H](N)c3cc(Cl)c(Cl)cc3O)CC2)o1 [Compound 155, 2-[(R)-amino[1-(5-amino-1,3,4-oxadiazole-2-carbonyl)piperidin-4-yl]methyl]-4,5-dichlorophenol trifluoroacetic acid] | < 10 | > 30
Cc1cc(O)c([C@H](N)C2CCN(C(=O)c3c[nH]c(=O)cc3Cl)CC2)cc1Cl [Compound 245, 5-[4-[(R)-amino (5-chloro-2-hydroxy-4-methylphenyl)methyl]piperidine-1-carbonyl]-4-chloro-1H-pyridin-2-one trifluoroacetic acid] | < 0.5 | > 30
N[C@@H](c1cc(Cl)c(Cl)cc1O)C1CCN(S(=O)(=O)c2cn[nH]c2)CC1 [Compound 158, 2-[(R)-amino[1-(1H-pyrazole-4-sulfonyl)piperidin-4-yl]methyl]-4,5-dichlorophenol Trifluoroacetic Acid] | < 10 | < 30
N[C@@H](c1cc(Cl)c(Cl)cc1O)C1CCN(S(=O)(=O)[C@@H]2CCNC2)CC1 (single isomer, unassigned; isomer 1) [Compound 112] | < 0.5 | > 30
Nc1ccnc(N2CCC([C@@H](N)c3cc(Cl)c(Cl)cc3O)CC2)c1 [Compound 150, (R)-2-(amino(1-(4-aminopyridin-2-yl)piperidin-4-yl)methyl)-4,5-dichlorophenol Trifluoroacetic Acid] | < 0.5 | < 30
N[C@@H](c1cc(Cl)c(Cl)cc1O)[C@H]1CCNC1 (single isomer, unassigned; diastereoisomer 1) [Compound 32, 2-(amino(pyrrolidin-3-yl)methyl)-4,5-dichlorophenol Trifluoroacetic Acid Diastereoisomer 1] | < 10 | > 30
Cn1cc(C(=O)N2CCC([C@@H](N)c3cc(Cl)c(Cl)cc3O)CC2)cn1 [Compound 203, (R)-(4-(amino(4,5-dichloro-2-hydroxyphenyl)methyl)piperidin-1-yl) (1-methyl-1H-pyrazol-4-yl)methanone] | < 0.5 | < 30
Cc1cc(O)c([C@H](N)C2CCN(C(=O)c3ccc(CO)nc3)CC2)cc1Cl [Compound 248, 2-[(R)-amino([1-[6-(hydroxymethyl)pyridine-3-carbonyl]piperidin-4-yl])methyl]-4-chloro-5-methylphenol] | < 0.5 | > 30
Cc1cc(O)c([C@H](N)C2CCN(C(=O)c3ccc(=O)n(CCO)c3)CC2)cc1Cl [Compound 249, 5-[4-[(R)-amino (5-chloro-2-hydroxy-4-methylphenyl)methyl]piperidine-1-carbonyl]-1-(2-hydroxyethyl) pyridin-2-one trifluoroacetic acid] | < 0.5 | > 30
O=S(=O)([C@H]1CCNC1)N1CCC([C@H](O)c2cc(Cl)c(Cl)cc2O)CC1 (single isomer, unassigned; isomer 3) [Compound 121, 4,5-dichloro-2-(hydroxy(1-(pyrrolidin-3-ylsulfonyl)piperidin-4-yl)methyl)phenol Isomer 3] | < 0.5 | > 30
N[C@@H](c1cc(Cl)c(Cl)cc1O)C1CCN(C(=O)[C@@H]2COCCN2)CC1 [Compound 195, (4-((R)-amino(4,5-dichloro-2-hydroxyphenyl)methyl)piperidin-1-yl)((S)-morpholin-3-yl)methanone] | < 0.5 | > 30
Cc1cc(O)c([C@H](N)C2CCN(C(=O)C3CNC3)CC2)cc1Cl [Compound 235, 2-[(R)-amino[1-(azetidine-3-carbonyl)piperidin-4-yl]methyl]-4-chloro-5-methylphenol trifluoroacetic acid] | < 0.5 | > 30
N[C@@H](c1cc(Cl)c(Cl)cc1O)C1CCN(C(=O)[C@H]2COCCO2)CC1 [Compound 169, 2-[(R)-amino([1-[(2R)-1,4-dioxane-2-carbonyl]piperidin-4-yl])methyl]-4,5-dichlorophenol trifluoroacetic acid] | < 10 | < 30
Nc1nc(N2CCC([C@@H](N)c3cc(Cl)c(Cl)cc3O)CC2)no1 [Compound 183, 2-[(R)-amino[1-(5-amino-1,2,4-oxadiazol-3-yl)piperidin-4-yl]methyl]-4,5-dichlorophenol] | < 0.5 | < 30
Cc1cc(O)c([C@H](N)C2CCN(C(=O)c3c[nH]c(=O)c(CO)c3)CC2)cc1Cl [Compound 207, (R)-5-(4-(amino (5-chloro-2-hydroxy-4-methylphenyl)methyl)piperidine-1-carbonyl)-3-(hydroxymethyl) pyridin-2(1H)-one] | < 0.5 | > 30
